According to patent publication EP3928779A1 (Chugai Seiyaku Kabushiki Kaisha, priority 2014, dated 2016):

Test system: rat small-intestinal brush border membrane vesicles
Assay: Inhibitory effect on 33PO4 uptake into rat small-intestinal brush border membrane vesicles (rapid filtration method)
Assay type: biochemical
Details: 33PO4 uptake into rat small-intestinal BBMVs; test compound 1 µM; reacted for 60 seconds
How it was run: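 Uptake of ^33PO4 was measured by rapid filtration and liquid scintillation counting of filter-retained vesicles, after quenching with ice-cold 110 mM NaCl/1 mM KH2PO4/10 mM HEPES pH 7.5. Vesicles were brush border membranes from the upper small intestine of female Wistar rats aged 4–5 weeks.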

SMILES | Rate of uptake inhibition (%) (1 µM)
C[C@]12CCCN1N(Cc1ccc(C#CCCCCC(=O)O)c(F)c1F)C(=O)C(C(=O)Nc1ccc(C(F)(F)F)cc1-c1cncc(C(F)(F)F)c1)=C2O [Example 119, 7-[4-[[(4aR)-4-Hydroxy-4a-methyl-2-oxo-3-[[4-(trifluoromethyl)-2-[5-(trifluoromethyl)pyridin-3-yl]phenyl]carbamoyl]-6.7-dihydro-5H-pyrrolo[1,2-b]pyridazin-1-yl]methyl]-2.3-difluorophenyl]hept-6-ynoate] | 71%
COCCN(C)CCOCCOCCOCCOCCOc1ccc(CN2C(=O)C(C(=O)Nc3ccc(C(F)(F)F)cc3-c3cc(C(F)(F)F)ncn3)=C(O)C3(CCCC3)N2C)c(F)c1F [Example 432] | 11%
C[C@]12CCCN1N(Cc1cccc(F)c1F)C(=O)C(C(=O)Nc1ccc(Br)cc1F)=C2O [Example 75] | 74%
COC(=O)c1cccc(CN2C(=O)C(C(=O)Nc3ccc(C(F)(F)F)cc3-c3cc(C(F)(F)F)ncn3)=C(O)[C@@]3(C)CCCN23)c1 [Example 183] | 82%
CN(CCOc1ccc(CN2C(=O)C(C(=O)Nc3ccc(C(F)(F)F)cc3-c3cc(C(F)(F)F)ncn3)=C(O)C3(CCCC3)N2C)c(F)c1F)C1CCOCC1 [Example 365] | 34%
CN1[C@@H](C(C)(C)C)C(O)=C(C(=O)Nc2ccc(C(F)(F)F)cc2-c2ccc(C(F)(F)F)nc2)C(=O)N1Cc1cccc(F)c1F [Example 238] | 47%
CN1N(Cc2ccc(OCCCOCCO)c(F)c2F)C(=O)C(C(=O)Nc2ccc(C(F)(F)F)cc2-c2cc(C(F)(F)F)ncn2)=C(O)C12CCCC2 [Example 395] | 39%
COCCN(C)CCOCCOc1ccc(CN2C(=O)C(C(=O)Nc3ccc(C(F)(F)F)cc3-c3cc(C(F)(F)F)ncn3)=C(O)C3(CCCC3)N2C)c(F)c1F [Example 429, 7-[[2,3-Difluoro-4-[2-[2-[2-methoxyethyl(methyl)amino]ethoxy]ethoxy]phenyl]methyl]-10-hydroxy-6-methyl-8-oxo-N-[4-(trifluoromethyl)-2-[6-(trifluoromethyl)pyrimidin-4-yl]phenyl]-6,7-diazaspiro[4.5]dec-9-ene-9-carboxamide] | 41%
COC(=O)CN(C)CCOc1ccc(CN2C(=O)C(C(=O)Nc3ccc(C(F)(F)F)cc3-c3cc(C(F)(F)F)ncn3)=C(O)C3(CCC3)N2C)c(F)c1F [Example 346] | 42%
C[C@]12CCCN1N(Cc1cccc(C#N)c1)C(=O)C(C(=O)Nc1ccc(C(F)(F)F)cc1-c1cc(C(F)(F)F)ncn1)=C2O [Example 179] | 83%
CSc1ccc(-c2cc(C(F)(F)F)ccc2NC(=O)C2=C(O)[C@@]3(C)CCCN3N(Cc3ccc(OCCCCOC[C@H](O)CO)c(F)c3F)C2=O)cn1 [Example 120, (4aR)-1-[[4-[4-[(2R)-2,3-Dihydroxypropoxy]butoxy]-2,3-difluorophenyl]methyl]-4-hydroxy-4a-methyl-N-[2-(6-methylsulfanylpyridin-3-yl)-4-(trifluoromethyl)phenyl]-2-oxo-6,7-dihydro-5H-pyrrolo[1,2-b]pyridazine-3-carboxamide] | 66%
C[C@H]1COC[C@H](C)N1CCOc1ccc(CN2C(=O)C(C(=O)Nc3ccc(C(F)(F)F)cc3-c3cc(C(F)(F)F)ncn3)=C(O)C3(CCC3)N2C)c(F)c1F [Example 343] | 68%
CN1N(Cc2ccc(OCCN3CCOCC3(C)C)c(F)c2F)C(=O)C(C(=O)Nc2ccc(C(F)(F)F)cc2-c2cc(C(F)(F)F)ncn2)=C(O)C12CCCC2 [Example 371] | 38%
CN1N(Cc2ccc(OCCN(CCO)CCO)c(F)c2F)C(=O)C(C(=O)Nc2ccc(C(F)(F)F)cc2-c2cc(C(F)(F)F)ncn2)=C(O)C12CCC2 [Example 351] | 22%
CN1N(Cc2ccc(OCCCOC[C@H](O)CO)c(F)c2F)C(=O)C(C(=O)Nc2ccc(C(F)(F)F)cc2-c2ccc(C(F)(F)F)nc2)=C(O)C12CCCC2 [Example 386] | 36%
COc1cc(CN2C(=O)C(C(=O)Nc3ccc(C(F)(F)F)cc3-c3ccc(C(F)(F)F)nc3)=C(O)[C@@]3(C)CCCN23)cc(OC)c1 [Example 202] | 75%
C[C@]12CCCN1N(Cc1cccc(F)c1F)C(=O)C(C(=O)Nc1ccc(C(F)(F)F)cc1-c1ncnc(Cl)c1Cl)=C2O [Example 70] | 79%
CN(C)S(=O)(=O)c1ccc(-c2nc(C(F)(F)F)ccc2NC(=O)C2=C(O)[C@@]3(C)CCCN3N(Cc3cccc(F)c3F)C2=O)cc1 [Example 87] | 84%
C[C@]12CCCN1N(Cc1ccc(Cl)cc1)C(=O)C(C(=O)Nc1ccc(C(F)(F)F)cc1-c1cc(C(F)(F)F)ncn1)=C2O [Example 182] | 86%

SMILES | Rate of uptake inhibition (%) (1 µM)
C[C@]12CCCN1N(Cc1cccc([N+](=O)[O-])c1)C(=O)C(C(=O)Nc1ccc(Br)c(F)c1)=C2O [Example 27] | 76%
C[C@]12CCCN1N(Cc1ccc(OC[C@H]3CCCO3)c(F)c1F)C(=O)C(C(=O)Nc1ccc(C(F)(F)F)cc1-c1ccc(C(F)(F)F)nc1)=C2O [Example 160] | 77%
C[C@]12CCCN1N(Cc1c(F)cc(OCCCCCOC[C@@H](O)CO)cc1F)C(=O)C(C(=O)Nc1ccc(C(F)(F)F)cc1-c1ccc(C(F)(F)F)nc1)=C2O [Example 153] | 73%
C[C@]12CCCN1N(Cc1cccc(F)c1F)C(=O)C(C(=O)Nc1ccc(C(F)(F)F)cc1-c1cnc(Br)cn1)=C2O [Example 73] | 74%
C[C@]12CCCN1N(CCCC(F)(F)F)C(=O)C(C(=O)Nc1ccc(C(F)(F)F)cc1-c1cc(C(F)(F)F)ncn1)=C2O [Example 234, (4aR)-4-Hydroxy-4a-methyl-2-oxo-1-(4,4,4-trifluorobutyl)-N-[4-(trifluoromethyl)-2-[6-(trifluoromethyl)pyrimidin-4-yl]henyl]-6,7-dihydro-5H-pyrrolo[1,2-b]pyridazine-3-carboxamide] | 73%
CN1N(Cc2ccc(OCCN3CCN(CCO)CC3)c(F)c2F)C(=O)C(C(=O)Nc2ccc(C(F)(F)F)cc2-c2cc(C(F)(F)F)ncn2)=C(O)C12CCCC2 [Example 376] | 33%
COC(C)(C)CN(C)CCOc1ccc(CN2C(=O)C(C(=O)Nc3ccc(C(F)(F)F)cc3-c3cc(C(F)(F)F)ncn3)=C(O)C3(CCC3)N2C)c(F)c1F [Example 350] | 45%
C[C@]12CCCN1N(Cc1c(F)cccc1F)C(=O)C(C(=O)Nc1ccc(C(F)(F)F)cc1-c1cc(C(F)(F)F)ncn1)=C2O [Example 212] | 98%
C[C@]12CCCN1N(Cc1c(F)cc(C#CC3(O)CCCC3)cc1F)C(=O)C(C(=O)Nc1ccc(C(F)(F)F)cc1-c1ccc(C(F)(F)F)nc1)=C2O [Example 130] | 72%
C[C@]12CCCN1N(Cc1cccc(F)c1F)C(=O)C(C(=O)Nc1ccc(C(F)(F)F)cc1-c1cnc3ccccc3c1)=C2O [Example 83] | 90%
COC(=O)CN(C)c1ncc(-c2cc(C(F)(F)F)ccc2NC(=O)C2=C(O)[C@@]3(C)CCCN3N(Cc3cccc(F)c3F)C2=O)cc1C#N [Example 112, Methyl 2-[[5-[2-[[(4aR)-1-[(2,3-difluorophenyl)methyl]-4-hydroxy-4a-methyl-2-oxo-6,7-dihydro-5H-pyrrolo[1,2-b]pyridazine-3-carbonyl]aminol-5-(trifluoromethyl)phenyl]-3-cyanopyridin-2-yl-methylamino] acetate] | 43%
CN1N(Cc2ccc(OCCNCCS(=O)(=O)O)c(F)c2F)C(=O)C(C(=O)Nc2ccc(C(F)(F)F)cc2-c2cc(C(F)(F)F)ncn2)=C(O)C12CCCC2 [Example 435, 2-[2-[2,3-Difluoro-4-[[10-hydroxy-6-methyl-8-oxo-9-[[4-(trifluoromethyl)-2-[6-(trifluoromethyl)pyrimidin-4-yl]phenyl]carbamoyl]-6,7-diazaspiro[4.5]dec-9-en-7-yl]methyl]phenoxy]ethylamino]ethanesulfonic acid] | 11%
CN(C)S(=O)(=O)N1CCC(c2cc(C(F)(F)F)ccc2NC(=O)C2=C(O)[C@@]3(C)CCCN3N(Cc3cccc(F)c3F)C2=O)CC1 [Example 110] | 57%
CN1N(Cc2ccc(OCCN3CCOCC3)c(F)c2F)C(=O)C(C(=O)Nc2ccc(C(F)(F)F)cc2-c2ccc(C(F)(F)F)nc2)=C(O)C12CCC2 [Example 282] | 55%
CCOC(=O)CCCCCCN1C(=O)C(C(=O)Nc2ccc(C(F)(F)F)cc2-c2ccc(C(F)(F)F)nc2)=C(O)[C@@]2(C)CCCN12 [Example 235, Ethyl 7-[(4aR)-4-hydroxy-4a-methyl-2-oxo-3-[[4-(trinuoromethyl)-2-[6-(trifluoromethyl)pyridin-3-yl]phenyl]carbamoyl]-6,7-dihydro-5H-pyrrolo[1,2-b]pyridazin-1-yl]heptanoate] | 65%
COCC(C)(C)N(C)CCOc1ccc(CN2C(=O)C(C(=O)Nc3ccc(C(F)(F)F)cc3-c3cc(C(F)(F)F)ncn3)=C(O)C3(CCCC3)N2C)c(F)c1F [Example 372] | 38%
CN1N(Cc2ccc(OCCCC(=O)O)c(F)c2F)C(=O)C(C(=O)Nc2ccc(C(F)(F)F)cc2-c2cc(C(F)(F)F)ncn2)=C(O)C12CCCC2 [Example 332, 4-[2,3-Difluoro-4-[[10-hydroxy-6-methyl-8-oxo-9-[[4-(trifluoromethyl)-2-[6-(trifluoromethyl)pyrimidin-4-yl]phenyl]carbamoyl]-6,7-diazaspiro[4.5]dec-9-en-7-yl]methyl]phenoxy]butanoate] | 3%
CN(C)S(=O)(=O)c1ccc(-c2cc(C(F)(F)F)ccc2NC(=O)C2=C(O)[C@@]3(C)CCCN3N(Cc3cccc(F)c3F)C2=O)s1 [Example 71] | 97%
C[C@]12CCCN1N(Cc1cccc(F)c1F)C(=O)C(C(=O)Nc1ccc(Cl)cc1-c1ccc(C(F)(F)F)nc1)=C2O [Example 86] | 83%
